“Also recorded” adds a separate entry of the source.
test system: Normal subject PBMC; assay type: cell-based, human

Sequence | suppression of T cell response to pool of H7N9 ICS peptides on co-incubation | suppression of T cell responses to HA peptides from circulating IAV strains
AVKLYKKLKREMTFHGA [Peptide H7N9-9] | did not suppress T cell responses to the pool of H7N9 epitopes | 
IVYWKQWLSLKNLTQ [Peptide H7N9-14A] |  | Reduced responses to the pool of IAV peptides (1-4)
PRYVKQRSLLLATG [Peptide H7N9-13] | significantly suppressed T cell response to the pooled peptides; also recorded: significantly decreased | significantly suppressed T cell response to IAV-3; also recorded: Reduced responses to the pool of IAV peptides (1-4); also recorded: able to suppress responses to other immunodominant HA peptides from circulating IAV strains
WKQWLSLKNTLTQGSL [Peptide H7N9-14B] |  | Reduced responses to the pool of IAV peptides (1-4)

test system: PBMC; assay type: cell-based, human

Sequence | % Inhibition by HLA-DR blocking Ab | Effect of blocking HLA-DR on peptide-induced T cell response (in words)
AANIIGILHLILWILDRL [Peptide H7N9-10] | 68% | only partially inhibited
AVKLYKKLKREMTFHGA [Peptide H7N9-9] | 100% | 
DKLYERVKRQLRENAEED [Peptide H7N9-8] | 89% | only partially inhibited
IVYWKQWLSLKNLTQ [Peptide H7N9-14A] | 100% | 
KGILGFVFTLTVPSERGLQ [Peptide H7N9-3] | 97% | only partially inhibited
PKYVKSNRLVLATG [IAV-4, reference compound] | 96% | only partially inhibited
PKYVKSTKLRLATG [IAV-1, reference compound] | 100% | 
PRYVKQNTLKLATG [IAV-3, reference compound] | 78% | only partially inhibited
PRYVKQRSLLLATG [Peptide H7N9-13] | 100% | 
PRYVKQSTLKLATG [IAV-2, reference compound] | 73% | only partially inhibited
QITFMQALQLLLEVE [Peptide H7N9-12] | 100% | 
QPEWFRNVLSIAPIMFSNK [Peptide H7N9-4] | 100% | 
RIDFHWLMLNPNDTVTFS [Peptide H7N9-1] | 46% | only partially inhibited
SRKLLLIVQALRDNLEPG [Peptide H7N9-11] | increased response | the response increased in the presence of the blocking antibody; also recorded: response was absent except when HLA-DR was blocked
YAEMKWLLSNTDNAAFPQ [Peptide H7N9-2] | 100% | 
